Measurements from patent US20170002313A1, “COMPOSITIONS AND METHODS OF OBTAINING AND USING ENDODERM AND HEPATOCYTE CELLS” (Genentech Inc., priority 2012, published 2017).

Columns and labels:
mTOR = mTOR (Homo sapiens, UniProt P42345); assay: In vitro kinase profile, PI3K alpha_MTOR score; type: biochemical
Procedure: (§1) The effect of each compound on the PI3K/AKT/MTOR pathway was evaluated in two ways: via a kinase profile (FIG. 23) and via phospho imaging assays (i.e., immunofluorescence assays using antibodies specific for the phosphorylated form of mTOR or AKT). In vitro kinase profiling provided percent inhibition for numerous targets within the PI3K cell signaling pathway, and cell-based imaging assays were performed to directly visualize the effect of each compound on phosphorylated Akt and phosphorylated mTOR in the cell system used for differentiation.
(§2) In column 2 of Table 6, the PI3K alpha_MTOR score reflects the ability of a compound to inhibit the phosphorylation of PI3K alpha and mTOR, where + indicates minimal inhibition, and +++ indicates maximal inhibition. In column 3 of Table 6, the score indicates the ratio of phosphorylated mTOR (as measured by fluorescence intensity) in cells treated with a compound and the phosphorylated mTOR (as measured by fluorescence intensity) in cells that were not treated with the compound. In column 4 of Table 6, the score indicates the ratio of phosphorylated AKT (as measured by fluorescence intensity) in cells treated with a compound and the phosphorylated AKT (as measured by fluorescence intensity) in cells that were not treated with the compound. A reported effect of AKT inhibitors is an increase in phosphorylated AKT.

phosphorylated mTOR = assay: Phospho imaging assay (immunofluorescence); type: cell-based, human
Procedure: as §1, §2

phosphorylated AKT = assay: Phospho imaging assay (immunofluorescence); type: cell-based, human
Procedure: as §1, §2

[1] = tested on: human embryonic stem cells (hESC); assay: AlphaLISA of SOX17 and OCT4 in hESC-derived cells; type: cell-based; conditions: for endoderm conversion (SOX17 AlphaLISA): Activin A + 750 nM inhibitor, no Wnt3a, 3-day treatment
Procedure: To detect OCT4, the cells were washed three times in PBS and lysed with 50 ul AlphaLISA Lysis Buffer (Perkin Elmer, #AL003C). The lysis buffer was added to each cell sample and mixed with the cells five times. The cell samples were then incubated in a plate shaker at room temperature for 15 minutes. 5 μl of the lysate from each sample was then transferred to a 384 well OptiPlate (Perkin Elmer, #6005629). 5 μl of 10 ug/ml anti-rabbit acceptor bead (Perkin Elmer, #AL104M) and […] of 0.2 nM of rabbit anti-OCT4 antibody (Cell Signaling, #2890) was added to each well and incubated for 2 hours at room temperature. Following the incubation, 5 μl of 0.5 nM mouse anti-OCT4 antibody (BD, #611203) and […] of 0.5 nM biotinylated goat anti-mouse antibody (Invitrogen, #B2763) were added to each well and incubated at room temperature for 2 hours. Following the incubation, […] of streptavidin donor beads (Perkin Elmer, #6760002B) were added to each well and incubated for 30 minutes. The OptiPlates were then analyzed using an Envision Multilabel Plate Reader (Perkin Elmer, #2104-0010). All beads and antibodies were diluted as necessary in IAB Buffer (Perkin Elmer, #AL000C)+50 mM NaCl. Four replicate assays were performed.
To detect SOX17, the cells were washed three times in PBS and lysed with 50 ul Roche Complete Lysis Buffer (Roche, #04719956001). The lysis buffer was added to each cell sample and mixed with the cells five times. The cell samples were then incubated in a plate shaker at room temperature for 15 minutes. 5 μl of the lysate from each sample was then transferred to a 384 well OptiPlate (Perkin Elmer, #6005629). 5 μl of 10 ug/ml anti-rabbit acceptor bead (Perkin Elmer, #AL104M) and […] of 1 nM of rabbit anti-SOX17 antibody (Sigma, #AV33271) was added to each well and incubated for 2 hours at room temperature. Following the incubation, 5 μl of 0.5 nM mouse anti-SOX antibody (Sigma, #SAB3300093) and […] of 0.5 nM biotinylated goat anti-mouse antibody (Invitrogen, #B2763) were added to each well and incubated at room temperature for 2 hours. Following the incubation, […] of streptavidin donor beads (Perkin Elmer, #6760002B) were added to each well and incubated for 30 minutes. The OptiPlates were then analyzed using an Envision Multilabel Plate Reader (Perkin Elmer, #2104-0010). All beads and antibodies were diluted as necessary in IAB Buffer (Perkin Elmer, #AL000C) Four replicate assays were performed.
After a 3-day treatment, cells were harvested and stained with anti-SOX17 antibody as described above in preparation for AlphaLISA analysis.

[2] = tested on: human embryonic stem cells (hESC); assay: Endoderm differentiation of hESC with small-molecule inhibitors, flow cytometry of endoderm markers; type: cell-based; conditions: for endoderm conversion (SOX17, FoxA2, CXCR4 flow cytometry): Activin A + 750 nM inhibitor
From the text: A variety of cell-type specific markers were used to monitor the differentiation of stem cells into endoderm cells in the flow cytometry, fluorescence imaging, and immunoassay experiments described below. To detect endoderm conversion, hESC-derived cell samples were stained for the expression of SOX17, FoxA2, and CXCR4 proteins. SOX17, FoxA2, and CXCR4 are proteins that are expressed by endoderm cells but not by stem cells. To detect stem cells, cell samples were stained for the expression of OCT4, a protein expressed by stem cells but not by endoderm cells.
Undifferentiated human embryonic stem cells (hES) were maintained at a density of 40,000 cells/cm^2 on qualified matrigel (BD, #354277) in TesR™2 medium ([…]™ Technologies #05860). Cultures were manually passaged twice a week. To prepare for endoderm differentiation, hESC cells were passaged into TesR™2 medium overnight. The following day, the TesR™2 medium was replaced with basal medium (DMEM/F12+Glutamax (Invitrogen, #10565) supplemented with B27 (Invitrogen, #17504-044)). No human embryos were destroyed in the process of obtaining stem cells for these methods. Furthermore, the plurality of stem cells is not obtained by the prior destruction of human embryos.
Unless otherwise noted, basal medium was supplemented with […] human Activin A (Peprotech, #120-14). When indicated, basal medium was also supplemented with an effective amount of, e.g., a growth factor such as […] human Wnt3a (R&D, #5036-WN-010), an isoform-specific P13K inhibitor or an mTOR inhibitor. […]
To prepare the cells for flow cytometry, hESC-derived cells grown under endoderm differentiation conditions were dissociated using Accutase (Innovative Cell technologies, #AT-104). Briefly, the cells were washed once in PBS, incubated with Accutase for 10 minutes at room temperature, pelleted, and washed in cold PBS. The Accutase-dissociated hESC-derived cell samples were stained with anti-CXC4 antibody, anti-SOX17 antibody, or anti-FoxA2 antibody. Additional cell samples were stained with isotype control antibodies (e.g., IgG1 or IgG2).
The cells that were to be stained with anti-CXCR4 antibody were washed once with cold DPBS and then directly stained with mouse anti-human CD184 (CXCR4)-IgG2-PE (BD, #555974) for one hour at 4° C. The cells that were to be stained with anti-SOX17 antibody or anti-FoxA2 antibody were first fixed for 25 minutes at 4° C. in fixation buffer (BD, #554655) and permeabilized for 30 minutes on ice in Perm Buffer III (BD, #554656). Anti-SOX17 staining was performed using a mouse anti-SOX17 IgG1-PE antibody (BD, #561591) at room temperature for 30 minutes. Anti-FoxA2 staining was performed using a mouse anti-human FoxA2 IgG1 (BD, #561589) under the same conditions. A control sample of cells were fixed as described above and stained with either an anti-IgG1-PE antibody (BD, #554680) at room temperature for 30 minutes or an anti-IgG2-PE antibody (BD, #55574) for one hour at 4° C.
The antibody-stained hESC-derived cells were then analyzed via flow cytometry using a BD LSRFortessa™ cell analyzer. […] Approximately 1×10^6 cells were analyzed per sample.

Akt = assay: In vitro kinase profile; type: biochemical
Procedure: as §1

PI3K alpha = PI3K alpha (Homo sapiens, UniProt P42336); assay: In vitro kinase profile, PI3K alpha_MTOR score; type: biochemical
Procedure: as §1, §2

[3] = tested on: human embryonic stem cells (hESC); assay: Dose response with Activin A for optimal concentration (SOX17, cell death); type: cell-based
Procedure: To facilitate extended characterization, it was necessary to determine the optimal concentration of each of the compounds for use subsequent experiments. The optimal concentration of each compound was determined based on two parameters: highest efficiency of endoderm differentiation and low toxicity. Each compound was tested with Activin A in a dose response manner. The concentration that gave the highest % SOX17 expressing cells at Day 3 without causing more than 30% cell death compared to control was determined for each compound. The yield of differentiation went from 4% to 81% SOX17+ cells at day 3.

hESC-derived cells = assay: xCELLigence proliferation and viability time course; type: cell-based, human; conditions: 12 days, no medium change; Activin A + 750 nM Compound A, or Activin A + Wnt3a + 5 μM LY294002
Procedure: The hESC-derived cells grown under each condition were assayed for their proliferation and viability once a day for 12 days with no medium change using Roche's xCELLigence System according to standard protocol.
xCELLigence measured proliferation and viability as a function of impedance signal. High impedance signals indicated cell attachment to the surface of the culture dish, which is associated with increased proliferation. In contrast low impedance signals indicated cells' detachment from the surface of the culture dish, which is associated with cell death. […] The experiments whose results are depicted in FIG. 8 were performed in duplicate. Accordingly, there are two curves for each condition.

[4] = tested on: hESC-derived endoderm cells; assay: CellTiter-Glo Luminescent Cell Viability Assay; type: cell-based, human; conditions: Activin A + 100 nM to 1.5 μM Compound A, 7 days
From the text: In this assay, metabolically active cells in each sample tested were quantified as a function of ATP levels produced by the sample.

[5] = 60 min, treated versus untreated cells, fluorescence intensity
[6] = dose response of Compound A with Activin A
[7] = time course, Activin A + 750 nM Compound A, no Wnt3a, day 5

Chain of PI3K alpha (P42336 whole entry, species assumed): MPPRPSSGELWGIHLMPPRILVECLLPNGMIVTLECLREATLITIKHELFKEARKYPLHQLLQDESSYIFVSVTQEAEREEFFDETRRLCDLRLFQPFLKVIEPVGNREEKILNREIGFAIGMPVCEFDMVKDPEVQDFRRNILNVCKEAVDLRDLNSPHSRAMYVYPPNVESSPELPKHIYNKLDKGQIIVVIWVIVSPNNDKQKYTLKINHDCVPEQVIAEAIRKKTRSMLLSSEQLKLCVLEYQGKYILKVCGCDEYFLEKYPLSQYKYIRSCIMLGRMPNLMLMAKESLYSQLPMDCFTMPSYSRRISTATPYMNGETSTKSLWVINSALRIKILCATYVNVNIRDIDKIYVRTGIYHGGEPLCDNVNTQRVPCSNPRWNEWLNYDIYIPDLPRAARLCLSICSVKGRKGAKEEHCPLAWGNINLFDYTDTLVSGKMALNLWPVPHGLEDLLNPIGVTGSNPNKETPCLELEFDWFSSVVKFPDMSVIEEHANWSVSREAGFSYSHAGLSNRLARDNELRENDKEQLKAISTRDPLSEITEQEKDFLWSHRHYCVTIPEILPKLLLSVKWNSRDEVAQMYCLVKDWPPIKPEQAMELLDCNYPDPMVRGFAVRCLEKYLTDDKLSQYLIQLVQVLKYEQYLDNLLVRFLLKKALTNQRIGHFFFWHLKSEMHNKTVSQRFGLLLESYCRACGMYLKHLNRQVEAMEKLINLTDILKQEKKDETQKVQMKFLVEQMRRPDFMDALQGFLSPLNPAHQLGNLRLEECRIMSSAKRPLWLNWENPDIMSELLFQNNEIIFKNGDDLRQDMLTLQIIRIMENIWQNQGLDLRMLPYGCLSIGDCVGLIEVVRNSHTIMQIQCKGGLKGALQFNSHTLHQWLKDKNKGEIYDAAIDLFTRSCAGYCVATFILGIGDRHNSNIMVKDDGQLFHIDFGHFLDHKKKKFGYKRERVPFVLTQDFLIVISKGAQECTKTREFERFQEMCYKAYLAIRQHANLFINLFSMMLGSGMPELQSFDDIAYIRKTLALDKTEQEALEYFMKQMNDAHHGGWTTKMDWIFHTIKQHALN
Chain of PI3K alpha (P27986 whole entry partner, species assumed): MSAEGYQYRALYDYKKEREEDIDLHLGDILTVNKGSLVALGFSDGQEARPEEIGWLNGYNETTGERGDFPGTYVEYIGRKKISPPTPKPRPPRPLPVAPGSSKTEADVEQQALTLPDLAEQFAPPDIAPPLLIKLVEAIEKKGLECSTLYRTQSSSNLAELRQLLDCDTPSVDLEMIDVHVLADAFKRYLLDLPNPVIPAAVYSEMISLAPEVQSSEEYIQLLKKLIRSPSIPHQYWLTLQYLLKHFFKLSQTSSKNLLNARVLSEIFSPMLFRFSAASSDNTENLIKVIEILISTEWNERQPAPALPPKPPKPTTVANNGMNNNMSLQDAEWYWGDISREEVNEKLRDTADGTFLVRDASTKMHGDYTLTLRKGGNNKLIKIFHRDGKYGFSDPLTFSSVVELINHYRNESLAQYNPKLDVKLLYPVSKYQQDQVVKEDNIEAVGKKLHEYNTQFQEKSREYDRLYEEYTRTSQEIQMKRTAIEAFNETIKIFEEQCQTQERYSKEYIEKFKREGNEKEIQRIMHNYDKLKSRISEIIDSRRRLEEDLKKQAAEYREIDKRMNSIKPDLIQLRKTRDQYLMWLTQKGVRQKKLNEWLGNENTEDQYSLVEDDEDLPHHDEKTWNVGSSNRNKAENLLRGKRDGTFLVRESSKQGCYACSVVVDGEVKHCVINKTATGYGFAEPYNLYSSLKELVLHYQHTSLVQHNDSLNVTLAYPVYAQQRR

COC(=O)Nc1ccc(-c2nc(N3CCOCC3)c3cnn(C4CCN(C(=O)OC)CC4)c3n2)cc1 [WYE - 354]
PI3K alpha_MTOR score: MTOR (mTOR): +++
Avg(Avg (Ph MTOR_60m_%C # Spots)) (phosphorylated mTOR; [5]): 10.49 %C
Max(Avg (Ph AKT_60min_Intensity)) (phosphorylated AKT; [5]): 89.35
endoderm conversion (SOX17 AlphaLISA) [1]: better endoderm conversion than cells cultured in Activin A alone or cells cultured with an Akt inhibitor
endoderm conversion (SOX17, FoxA2, CXCR4 flow cytometry) ([2]; no Wnt3a, 3-day treatment): higher degree of endoderm conversion

COc1ccc(COc2cc3oc(=O)c4cc(C(C)O)ccc4c3cc2OC)cc1 (centres unmarked) [Palomid 529]
reduction of phosphorylation of mTOR (FIG. 23) (mTOR): did not show reduction of phosphorylation of mTOR or Akt
effect on mTOR phosphorylation in cell-based imaging assays (phosphorylated mTOR): did not exhibit any effects on Akt or mTOR phosphorylation
effect on Akt phosphorylation in cell-based imaging assays (phosphorylated AKT): did not exhibit any effects on Akt or mTOR phosphorylation
reduction of phosphorylation of Akt (FIG. 23) (Akt): did not show reduction of phosphorylation of mTOR or Akt

CO[C@H]1C[C@@H]2CC[C@@H](C)[C@@](O)(O2)C(=O)C(=O)N2CCCC[C@H]2C(=O)O[C@H]([C@H](C)C[C@@H]2CC[C@@H](OCCO)[C@H](OC)C2)CC(=O)[C@H](C)/C=C(\C)[C@@H](O)[C@@H](OC)C(=O)[C@H](C)C[C@H](C)/C=C/C=C/C=C/1C [everolimus]
PI3K alpha_MTOR score: PI3K alpha (PI3K alpha): PI3K alpha+_MTOR+
PI3K alpha_MTOR score: MTOR (mTOR): PI3K alpha+_MTOR+
Avg(Avg (Ph MTOR_60m_%C # Spots)) (phosphorylated mTOR; 1 h): 36.46 %C
endoderm conversion (SOX17 AlphaLISA) [1]: better endoderm conversion than cells cultured in Activin A alone or cells cultured with an Akt inhibitor
endoderm conversion (SOX17, FoxA2, CXCR4 flow cytometry) ([2]; no Wnt3a, 3-day treatment): higher degree of endoderm conversion

CCNC(=O)Nc1ccc2ncc(Nc3ccc(C)cc3)nc2n1 [Compound D1066]
reduction of phosphorylation of mTOR (FIG. 23) (mTOR): did not show reduction of phosphorylation of mTOR or Akt
effect on mTOR phosphorylation in cell-based imaging assays (phosphorylated mTOR): did not exhibit any effects on Akt or mTOR phosphorylation
effect on Akt phosphorylation in cell-based imaging assays (phosphorylated AKT): did not exhibit any effects on Akt or mTOR phosphorylation
reduction of phosphorylation of Akt (FIG. 23) (Akt): did not show reduction of phosphorylation of mTOR or Akt

CO[C@@H]1[C@H](N(C)C(=O)c2ccccc2)C[C@H]2O[C@]1(C)n1c3ccccc3c3c4c(c5c6ccccc6n2c5c31)C(=O)NC4 [PKC412]
toxicity [3]: may be toxic
reduction of phosphorylation of mTOR (FIG. 23) (mTOR): potent reduction of phosphorylation

COc1ccc(-c2ccc3c(N4CCOCC4)nc(N4C[C@@H](C)O[C@@H](C)C4)nc3n2)cc1CO [KU0063794]
PI3K alpha_MTOR score: PI3K alpha (PI3K alpha): +
PI3K alpha_MTOR score: MTOR (mTOR): +++
Avg(Avg (Ph MTOR_60m_%C # Spots)) (phosphorylated mTOR; [5]): 25.83 %C
endoderm conversion (SOX17 AlphaLISA) [1]: better endoderm conversion than cells cultured in Activin A alone or cells cultured with an Akt inhibitor
endoderm conversion (SOX17, FoxA2, CXCR4 flow cytometry) ([2]; no Wnt3a, 3-day treatment): higher degree of endoderm conversion

CS(=O)(=O)N1CCN(Cc2cc3nc(-c4cccc5[nH]ncc45)nc(N4CCOCC4)c3s2)CC1 [Compound A, 4-[2-(1H-indazol-4-yl)-6-[(4-methylsulfonylpiperazin-1-yl)methyl]thieno[3,2-d]pyrimidin-4-yl]morpholine]
viability and proliferation (impedance signal) (hESC-derived cells): remain viable and proliferative past day 4
OCT4 expression (AlphaLISA) [1, 6]: decreases
SOX17 expression (AlphaLISA) [1, 6]: increases with increasing concentrations of Compound A up to 750 nM
viability (ATP levels) [4]: greater viability at 7 days
% of hESC-derived cells expressing SOX17 ([2]; Activin A + Wnt3a + 500 nM inhibitor, 3-day treatment): 93.5-93.9%
% of hESC-derived cells expressing SOX17 ([2]; dose response, Activin A + 750 nM Compound A, no Wnt3a, 3-day treatment): 84%
% of hESC-derived cells expressing SOX17 ([2]; isoform-specific PI3K inhibitor + Activin A alone, 3-day treatment): about 77.35%
% of hESC-derived cells expressing CXCR4 [2, 7]: 82%
% of hESC-derived cells expressing FoxA2 [2, 7]: 87%
% of hESC-derived cells expressing SOX17 [2, 7]: 91%
